Measurements reported in patent US9845319B2, “Amide substituted thiazoles as modulators of RORyt” (Janssen Pharmaceutica NV, priority 2014, dated 2017).

How the values were obtained:
full-length human RORγt = biological target: T1, full-length human RORγt (Homo sapiens, UniProt P51449); experiment: RORγt (full-length human) Reporter Assay, Conditions A; assay type: cell-based; details: for IC50: HEK293T cells, GAL4-DBD-RORγt, luciferase, read-out: RORγt (FL) Reporter Assay A, IC50; for inhibition at 6 µM: read-out: RORγt (FL) Reporter Assay A, % inhibition @ 6 μM, 6 μM compound; for inhibition at 2 µM: read-out: RORγt (FL) Reporter Assay A, % inhibition (* at 2 μM), 2 μM compound concentration (footnote *)
T1 construct: expressed in transfected cells; host or cells: HEK293T, transiently transfected with pCMV-BD-ROR
T1 sequence (P51449 1-497 isoform P51449-2): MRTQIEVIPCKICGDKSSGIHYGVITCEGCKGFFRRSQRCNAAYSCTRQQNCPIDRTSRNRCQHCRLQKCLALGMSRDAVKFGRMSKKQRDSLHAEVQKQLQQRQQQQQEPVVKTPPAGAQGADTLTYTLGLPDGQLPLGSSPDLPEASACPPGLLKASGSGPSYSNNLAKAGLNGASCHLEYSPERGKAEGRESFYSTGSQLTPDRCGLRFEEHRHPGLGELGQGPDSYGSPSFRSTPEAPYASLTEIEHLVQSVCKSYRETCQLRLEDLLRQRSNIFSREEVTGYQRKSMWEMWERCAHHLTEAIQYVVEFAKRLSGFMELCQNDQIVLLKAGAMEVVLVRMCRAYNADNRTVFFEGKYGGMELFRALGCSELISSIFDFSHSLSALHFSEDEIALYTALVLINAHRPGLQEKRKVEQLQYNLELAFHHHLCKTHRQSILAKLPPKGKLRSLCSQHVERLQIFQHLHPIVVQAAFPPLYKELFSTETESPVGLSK
Summary of the method: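 Reporter cells lysed after 16–20 h compound exposure; firefly and Renilla luciferase luminescence measured. Firefly signal normalised to DMSO and saturating reference compound, then to Renilla; IC50 from normalised data versus concentration, percent inhibition relative to DMSO.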

[1] = biological target: T2, human RORγt ligand binding domain (RORγt LBD) (Homo sapiens, UniProt P51449); experiment: RORγt ThermoFluor assay; details: estimated from thermal shift concentration response
T2 construct: His-tag (N); TurboTEV protease cleavage site (ENLYFQG) (N); made in house; host or cells: E. coli (pHIS1, a modified pET expression vector)
T2 sequence (P51449 with tags, fused parts or gaps): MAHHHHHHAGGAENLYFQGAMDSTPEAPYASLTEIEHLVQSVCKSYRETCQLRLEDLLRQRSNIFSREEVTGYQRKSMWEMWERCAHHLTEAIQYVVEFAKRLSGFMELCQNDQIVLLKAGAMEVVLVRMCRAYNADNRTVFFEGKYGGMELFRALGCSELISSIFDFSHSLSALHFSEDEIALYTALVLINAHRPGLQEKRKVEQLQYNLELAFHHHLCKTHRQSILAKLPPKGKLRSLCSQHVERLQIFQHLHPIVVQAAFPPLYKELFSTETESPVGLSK
Summary of the method: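 Thermal shift of RORγt LBD (0.065 mg/mL) with 60 μM 1,8-ANS in 100 mM Hepes pH 7.0, NaCl, GSH, 0.002% Tween-20, heated at 1° C/min. ANS fluorescence tracked versus temperature; ΔTm relative to DMSO wells. Compounds serially diluted 1:2 from 10 mM DMSO stock.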

SMILES	IC50 (full-length human RORγt)	inhibition at 6 µM (full-length human RORγt)	Kd [1]	inhibition at 2 µM (full-length human RORγt)
CC(C)(O)c1nnc(-c2nc(C(=O)N3CCC(F)(F)CC3)c(-c3ccc(S(=O)(=O)NC4(C(F)F)CC4)c(F)c3Cl)s2)o1 [Example 6/17, 3-Chloro-N-(1-(difluoromethyl)cyclopropyl)-4-(4-(4,4-difluoropiperidine-1-carbonyl)-2-(5-(2-hydroxypropan-2-yl)-1,3,4-oxadiazol-2-yl)thiazol-5-yl)-2-fluorobenzenesulfonamide]	100 nM	105%	21 nM	
C[C@H](NS(=O)(=O)c1ccc(-c2sc(-c3nnc(C(C)(C)O)o3)nc2C(=O)N2CCCC[C@@H]2C)c(C(F)F)c1F)C(F)(F)F [Example 6/18, 3-(Difluoromethyl)-2-fluoro-4-(2-(5-(2-hydroxypropan-2-yl)-1,3,4-oxadiazol-2-yl)-4-((S)-2-methylpiperidine-1-carbonyl)thiazol-5-yl)-N—((S)-1,1,1-trifluoropropan-2-yl)benzenesulfonamide]	82 nM	104%	1 nM	
CC(C)(O)c1nnc(-c2nc(C(=O)N3CCC(F)(F)CC3)c(-c3ccc(S(=O)(=O)NC(C)(C)C(F)(F)F)c(F)c3Cl)s2)o1 [Example 6/19, 3-Chloro-4-(4-(4,4-difluoropiperidine-1-carbonyl)-2-(5-(2-hydroxypropan-2-yl)-1,3,4-oxadiazol-2-yl)thiazol-5-yl)-2-fluoro-N-(1,1,1-trifluoro-2-methylpropan-2-yl)benzenesulfonamide]	76 nM	107%	6.1 nM	
CC[C@H](NS(=O)(=O)c1ccc(-c2sc(-c3nnc(C(C)(C)O)o3)nc2C(=O)N(CC)CC)c(Cl)c1F)C(F)(F)F [Example 6/20, (S)-5-(2-Chloro-3-fluoro-4-(N-(1,1,1-trifluorobutan-2-yl)sulfamoyl)phenyl)-N,N-diethyl-2-(5-(2-hydroxypropan-2-yl)-1,3,4-oxadiazol-2-yl)thiazole-4-carboxamide]	43 nM		11 nM	102%
C[C@H](NS(=O)(=O)c1ccc(-c2sc(-c3nnc(C(C)(C)O)o3)nc2C(=O)N2CC(F)C[C@@H]2C)c(C(F)F)c1F)C(F)(F)F (stereo partly drawn) [Example 6/21, 3-(Difluoromethyl)-2-fluoro-4-(4-((2S)-4-fluoro-2-methylpyrrolidine-1-carbonyl)-2-(5-(2-hydroxypropan-2-yl)-1,3,4-oxadiazol-2-yl)thiazol-5-yl)-N—((S)-1,1,1-trifluoropropan-2-yl)benzenesulfonamide]	410 nM	102%	270 nM	
CC(C)(O)c1nnc(-c2nc(C(=O)N3CC(F)(F)CC3(C)C)c(-c3ccc(S(=O)(=O)NC4(C(F)F)CC4)c(F)c3Cl)s2)o1 [Example 6/22, 3-Chloro-4-(4-(4,4-difluoro-2,2-dimethylpyrrolidine-1-carbonyl)-2-(5-(2-hydroxypropan-2-yl)-1,3,4-oxadiazol-2-yl)thiazol-5-yl)-N-(1-(difluoromethyl)cyclopropyl)-2-fluorobenzenesulfonamide]	1600 nM	74%	1200 nM	
CN(CC(F)(F)F)S(=O)(=O)c1ccc(-c2sc(-c3nnc(C(C)(C)O)o3)nc2C(=O)N2CCC(F)(F)CC2)c(Cl)c1F [Example 6/23, 3-Chloro-4-(4-(4,4-difluoropiperidine-1-carbonyl)-2-(5-(2-hydroxypropan-2-yl)-1,3,4-oxadiazol-2-yl)thiazol-5-yl)-2-fluoro-N-methyl-N-(2,2,2-trifluoroethyl)benzenesulfonamide]	2300 nM	40%	6000 nM	
C[C@H]1CCCN1C(=O)c1nc(-c2nnc(C(C)(C)O)o2)sc1-c1ccc(OCC(O)(C(F)(F)F)C(F)(F)F)cc1C(F)(F)F [Example 6/24, (S)-(2-(5-(2-Hydroxypropan-2-yl)-1,3,4-oxadiazol-2-yl)-5-(4-(3,3,3-trifluoro-2-hydroxy-2-(trifluoromethyl)propoxy)-2-(trifluoromethyl)phenyl)thiazol-4-yl)(2-methylpyrrolidin-1-yl)methanone]	130 nM		11 nM	96%
